Measurements from article PMC11490426, “Structure-activity relationship of amino acid analogs to probe the binding pocket of sodium-coupled neutral amino acid transporter SNAT2” (Amino Acids, 2024).
Entries after “also recorded” stand apart in the source; their conditions may differ. Structures can show the parent of a compound that is named as a salt. Where two headings read alike, the source gives them in different places. Each block holds one compound with its values, some of them ahead of it.

Experiments:
SNAT2 [1] = biological target: T1, SNAT2 (Homo sapiens, UniProt Q96QD8); assay: Inhibition of SNAT2-mediated 3H-glycine uptake in hyperosmotically treated PC-3 cells; assay type: cell-based; settings: for inhibition of SNAT2-mediated 3H-glycine uptake / affinity for SNAT2: pH 7.4, result in words
T1 construct: hyperosmotically treated PC-3 cells, known to upregulate SNAT2; endogenous in cells; host or cells: PC-3 prostate cells exposed to hyperosmotic medium for 24 h
T1 sequence (Q96QD8 1-506): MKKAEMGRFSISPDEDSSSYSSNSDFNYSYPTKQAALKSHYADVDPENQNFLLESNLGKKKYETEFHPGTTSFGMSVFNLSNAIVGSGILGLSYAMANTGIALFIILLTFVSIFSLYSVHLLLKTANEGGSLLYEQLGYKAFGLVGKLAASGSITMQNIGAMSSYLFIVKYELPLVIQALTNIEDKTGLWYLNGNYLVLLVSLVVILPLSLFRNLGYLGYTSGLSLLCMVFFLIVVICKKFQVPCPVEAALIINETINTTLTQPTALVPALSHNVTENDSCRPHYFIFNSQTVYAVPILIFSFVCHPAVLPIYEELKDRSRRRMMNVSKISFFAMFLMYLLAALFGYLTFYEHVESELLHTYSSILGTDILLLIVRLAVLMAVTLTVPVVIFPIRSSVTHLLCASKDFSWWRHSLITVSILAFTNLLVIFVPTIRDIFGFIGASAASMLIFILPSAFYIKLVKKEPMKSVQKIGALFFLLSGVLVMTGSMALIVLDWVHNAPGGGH
Experimental: Where Y is the % uptake, X is the concentration of the inhibitor, Top and Bottom are the top and bottom plateau respectively, and IC50 is the half maximal inhibitory concentration. These studies were performed in at least 3 independent cell passages (n = 3) and a curve was defined for each independent passage. However, for each compound, the top and bottom were constrained to be the same amongst the different cell passages.

SNAT2 [2] = biological target: T1, SNAT2; assay: FLIPR membrane potential (FMP) assay in PC-3 cells; assay type: cell-based; settings: for response in the FMP assay (stimulation of SNAT2 activity) / influence on fluorescence intensity in the FMP assay: result in words; for influence on fluorescence intensity in the FMP assay: 20 mM
Experimental: PC-3 cells exposed to hyperosmotic media for 24 h were used to identify SNAT2 substrates in the FMP assay. The media was aspirated, and the cells were preincubated in HBSS + for 10 min at 37 °C and 220 rpm. Then the buffer was aspirated, and cells were then incubated in 50 µL HBSS + containing 0.55 mg ⋅ mL^− 1 (1x) FMP probe (Blue component A from Molecular Devices, San Jose, CA, USA) for 30 min at 37 °C and 220 rpm. […] First, the baseline was measured for 30 s by measuring each well every 3 s. The plate was then removed from the reader and 50 µL of substrate solutions containing 0.55 mg ⋅ mL^− 1 FMP probe was added. These solutions were prepared by mixing equal parts solution containing 2x FMP probe and solutions containing 4x the final concentration of substrate. […] Following this, the baseline of the next column was measured and followed the same procedure as just described.
For the FMP data, the baseline was defined as the mean fluorescence of the first data point before substrate addition. The baseline of each well was then subtracted from the data point to get the ΔF. Plotting ΔF as a function of time and calculating the area under the curve (AUC) after substrate addition was used as a measure of SNAT2 activity.

SNAT2 [3] = biological target: T1, SNAT2; set-up: method as in Jakobsen et al. [2023]; Nielsen et al. [2022]; settings: hyperosmotically treated PC-3 cells; ref Jakobsen et al. [2023]; Nielsen et al. [2022]; cited from earlier work
SNAT2 [4] = biological target: T1, SNAT2; assay: Intracellular amino acids and analogs quantified by OPA derivatization and HPLC-Fl after uptake in PC-3 cells; assay type: cell-based; settings: 30 min uptake; for fold change of intracellular accumulation in absence vs presence of 10 mM L-glutamine: pH 7.4
Experimental: Derivatization of AAs and analogs using o-phthalaldehyde (OPA) and 2-mercaptoethanol (2-ME) to make fluorescent derivatives was used to measure the intracellular amounts of AAs and analogs following uptake in hyperosmotically treated PC-3 cells. Before starting the experiment, the medium was aspirated, and the cells were preincubated in HBSS + for 15 min at 37 °C and 220 rpm. The cells were then incubated with 500 µL HBSS+ (background) or HBSS + containing AAs or analogs at given concentrations for 30 min at 37 °C and 220 rpm. After aspirating the donor solutions, the cells were washed thrice with 500 µL of ice-cold PBS while keeping the cells on ice. 200 µL of ice-cold 1x-trypsin was added to each well and allowed to distribute for 20–30 min while keeping the cells on ice. The plate was then transferred to an incubating microplate shaker at 37 °C and 220 rpm for about 8 min or until the cells had detached. 300 µL of ice-cold PBS was added to each well to resuspend the cells and transfer them to centrifuge tubes. The cells were centrifuged at 1000 G for 5 min (4 °C), the supernatant was removed, the cells were resuspended in 300 µL ice-cold PBS, and then centrifuged again at 1000 G for 5 min (4 °C). After removing the supernatant, the cell pellet was lysed by adding 100 µL of 80% methanol (20% ultrapure water) and placing the tubes in an ultrasonic bath for 10 min. The tubes were then centrifuged at 15,000 G for 15 min (4 °C) and the resulting supernatant was used for analysis.
The OPA reagent was prepared by spiking with 2 µL 2-ME per mL of OPA regent and was considered stable for use within one day. 10 µL of the cell samples or standards containing a mixture of the AAs and analogs of interest were placed in HPLC vials with 100 µL inserts. […] The autosampler kept the samples at 10 °C and the pretreatment function was used to automatically mix the samples with 10 µL of the OPA reagent and wait 4 min before loading 2 µL onto a YMC-Triart C18 column (75 × 3.0 mm, 1.9 μm, Mikrolab Aarhus, Viby J, Denmark). […] The fluorescence detector was set to excite at 350 nm and detect at 450 nm.
The resulting chromatograms were integrated and the area under the curve (AUC) of the standard samples was used to generate standard curves to determine the concentration of AAs and analogs in the cell samples. […] Amino acid levels detected in the background cell samples were subtracted from the other cell samples.

SNAT2 [5] = biological target: T1, SNAT2; assay: FLIPR membrane potential (FMP) assay in PC-3 cells; assay type: cell-based; settings: isoosmotically treated PC-3 cells
[6] = 3 mM compound, hyperosmotically treated PC-3 cells
[7] = hyperosmotically treated PC-3 cells
[8] = hyperosmotically treated PC-3 cells, 5 min uptake of 11.1 nM 3H-glycine, pH 7.4, read-out: IC50
[9] = 20 mM compound, hyperosmotically treated PC-3 cells
[10] = 10 mM compound, hyperosmotically treated PC-3 cells

Structure (SMILES): O=C(O)[C@@H]1CCN1 [L-Azetidine-2-carboxylic acid, L-azetidine-2-carboxylic acid]
IC50 (SNAT2 [1]): 660 µM

Structure (SMILES): N[C@@H](CC1CCCCC1)C(=O)O [3-Cyclohexyl-L-alanine, 3-cyclohexyl-L-alanine]
AUC of fluorescence response-time curve (SNAT2 [2]; [6]): 21.9 ± 0.5 10^5 RFU ∙ s | AUC, % of 10 mM L-alanine (SNAT2 [2]; [6]): 99.2 ± 2.4% | response in the FMP assay (stimulation of SNAT2 activity) (SNAT2 [2]; [7]): substrates of SNAT2 | IC50 (SNAT2 [1]; [8]): 630 µM

Structure (SMILES): C[N+](C)(C)CC(=O)O [Betaine, betaine]
reduction of 3H-glycine uptake (SNAT2 [3]): ~86% | IC50 (SNAT2 [1]; [8]): 6600 µM

Structure (SMILES): N[C@@H](CCO)C(=O)O [L-Homoserine, L-homoserine]
AUC of fluorescence response-time curve (SNAT2 [2]; [10]): 25.9 ± 1.4 10^5 RFU ∙ s | AUC, % of 10 mM L-alanine (SNAT2 [2]; [10]): 117.5 ± 6.2% | response in the FMP assay (stimulation of SNAT2 activity) (SNAT2 [2]; [7]): substrates of SNAT2 | IC50 (SNAT2 [1]; [8]): 250 µM

Structure (SMILES): CCOC(=O)[C@H](C)N [L-Alanine ethyl ester, L-alanine ethyl ester hydrochloride]
AUC of fluorescence response-time curve (SNAT2 [2]; [10]): 21.1 ± 0.6 10^5 RFU ∙ s | AUC, % of 10 mM L-alanine (SNAT2 [2]; [10]): 95.4 ± 2.5% | response in the FMP assay (stimulation of SNAT2 activity) (SNAT2 [2]; [7]): substrates of SNAT2 | IC50 (SNAT2 [1]; [8]): 420 µM

Structure (SMILES): C[C@H](N)C(=O)OC(C)(C)C [L-Alanine tert-butyl ester, L-alanine tert-butyl ester hydrochloride]
IC50 (SNAT2 [1]; [8]): 4100 µM

Structure (SMILES): COC(=O)[C@H](C)N [L-Alanine methyl ester, L-alanine methyl ester hydrochloride]
AUC of fluorescence response-time curve (SNAT2 [2]; [10]): 23.5 ± 0.8 10^5 RFU ∙ s | AUC, % of 10 mM L-alanine (SNAT2 [2]; [10]): 106.6 ± 3.8% | response in the FMP assay (stimulation of SNAT2 activity) (SNAT2 [2]; [7]): substrates of SNAT2 | IC50 (SNAT2 [1]; [8]): 330 µM

Structure (SMILES): O=C(O)[C@@H]1CCCN1 [L-Proline, L-proline]
IC50 (SNAT2 [1]; [8]): 640 µM

Structure (SMILES): N=C(N)NCCC[C@H](N)C(=O)O [L-Arginine, L-arginine hydrochloride]
AUC of fluorescence response-time curve (SNAT2 [2]; [9]): -0.97 ± 0.3 10^5 RFU ∙ s | AUC, % of 10 mM L-alanine (SNAT2 [2]; [9]): -4.4 ± 1.2% | influence on fluorescence intensity in the FMP assay (SNAT2 [2]): little influence on the fluorescence intensity

Structure (SMILES): C[C@H](N)C(=O)O [L-Alanine, L-alanine]
AUC of fluorescence response-time curve (SNAT2 [2]; [10]): 22.1 ± 0.9 10^5 RFU ∙ s | AUC, % of 10 mM L-alanine (SNAT2 [2]; [10]): 100 ± 3.9% | EC50 (SNAT2 [2]; [7]): 245 µM | IC50 (SNAT2 [1]; [8]): 170 µM | inhibition of 3H-glycine uptake at different pH levels (SNAT2 [1]; pH 6.8, 7.4 and 8.0, 0.4 mM L-alanine benzyl ester or 0.2 mM L-alanine, two-way ANOVA): no significant differences in inhibition at the different pH levels | EC50 (SNAT2 [5]): 138 µM

Structure (SMILES): N[C@@H](CO)C(=O)O [L-Serine, L-serine]
AUC of fluorescence response-time curve (SNAT2 [2]; [10]): 24 ± 0.9 10^5 RFU ∙ s | AUC, % of 10 mM L-alanine (SNAT2 [2]; [10]): 108.6 ± 4.2% | fold change of intracellular accumulation in absence vs presence of 10 mM L-glutamine (SNAT2 [4]; 0.45 mM compound): 4.1 fold | IC50 (SNAT2 [1]; [8]): 460 µM

Structure (SMILES): O=C(O)[C@@H]1CCCCN1 [L-Pipecolinic acid, L-pipecolinic acid]
AUC of fluorescence response-time curve (SNAT2 [2]; [10]): 18.1 ± 0.2 10^5 RFU ∙ s | AUC, % of 10 mM L-alanine (SNAT2 [2]; [10]): 81.9 ± 0.8% | response in the FMP assay (stimulation of SNAT2 activity) (SNAT2 [2]; [7]): substrates of SNAT2 | IC50 (SNAT2 [1]; [8]): 2900 µM

Structure (SMILES): NCC(=O)O [Glycine, glycine]
IC50 (SNAT2 [1]; [8]): 520 µM | pIC50 ± SEM (SNAT2 [1]; hyperosmotically treated PC-3 cells, -log transformed IC50): [3.3 ± 0.11]

Structure (SMILES): CC(=O)C(C)N.Cl (centres unmarked) [3-aminobutan-2-one, 3-Aminobutan-2-one hydrochloride]
inhibition of SNAT2-mediated 3H-glycine uptake / affinity for SNAT2 (SNAT2 [1]; [7]): retains some affinity for SNAT2

Structure (SMILES): CCCC[C@H](N)C(=O)O [L-Norleucine, L-norleucine]
AUC of fluorescence response-time curve (SNAT2 [2]; [10]): 24.4 ± 1.3 10^5 RFU ∙ s | AUC, % of 10 mM L-alanine (SNAT2 [2]; [10]): 110.4 ± 6.1% | response in the FMP assay (stimulation of SNAT2 activity) (SNAT2 [2]; [7]): substrates of SNAT2

Structure (SMILES): N[C@@H](CCC(=O)O)C(=O)O [L-glutamate, L-glutamic acid]
inhibition of SNAT2-mediated 3H-glycine uptake / affinity for SNAT2 (SNAT2 [1]; [7]): limited affinity

Structure (SMILES): O=C(O)[C@@H]1C[C@@H](O)CN1 [trans-4-Hydroxy-L-proline, trans-4-hydroxy-L-proline]
IC50 (SNAT2 [1]): 3500 µM

Now from value to compound, other results behind:

IC50 (SNAT2 [1]; [8]): 23000 µM | IC50 (SNAT2 [1]; hyperosmotically treated PC-3 cells, -log transformed IC50, read-out: pIC50 ± SEM (converted)): 25100 µM
Structure (SMILES): CN(C)CC(=O)O [N,N-Dimethylglycine, N,N-dimethylglycine hydrochloride]

inhibition of SNAT2-mediated 3H-glycine uptake / affinity for SNAT2 (SNAT2 [1]; [7]): potency is lost
Structure (SMILES): Cl.NCC(N)=O [glycinamide, glycinamide hydrochloride]

inhibition of SNAT2-mediated 3H-glycine uptake / affinity for SNAT2 (SNAT2 [1]; [7]): relatively poor at inhibiting SNAT2
Structure (SMILES): N[C@@H](Cc1ccccc1)C(=O)O [L-phenylalanine]

AUC of fluorescence response-time curve (SNAT2 [2]; [9]): -1.0 ± 0.2 10^5 RFU ∙ s | AUC, % of 10 mM L-alanine (SNAT2 [2]; [9]): -4.7 ± 0.7%
Structure (SMILES): NCCS(=O)(=O)O [Taurine, taurine]
influence on fluorescence intensity in the FMP assay (SNAT2 [2]): did not lead to an increase in fluorescence; also recorded: little influence on the fluorescence intensity

AUC of fluorescence response-time curve (SNAT2 [2]; [6]): 1.7 ± 0.4 10^5 RFU ∙ s | AUC, % of 10 mM L-alanine (SNAT2 [2]; [6]): 7.8 ± 1.9% | fold change of intracellular accumulation in absence vs presence of 10 mM L-glutamine (SNAT2 [4]; 0.7 mM compound): 5.4 fold | level of intracellular accumulation (SNAT2 [4]; result in words): relatively low accumulation | IC50 (SNAT2 [1]; [8]): 680 µM
Structure (SMILES): N[C@@H](CCC(=O)OCc1ccccc1)C(=O)O [γ-Benzyl L-glutamate, γ-benzyl L-glutamate]
response in the FMP assay (stimulation of SNAT2 activity) (SNAT2 [2]; [7]): little or no stimulation of SNAT2 activity

inhibition of SNAT2-mediated 3H-glycine uptake / affinity for SNAT2 (SNAT2 [1]; [7]): limited affinity
Structure (SMILES): NCCCC[C@H](N)C(=O)O [L-lysine, L-lysine monohydrochloride]

inhibition of SNAT2-mediated 3H-glycine uptake / affinity for SNAT2 (SNAT2 [1]; [7]): relatively poor at inhibiting SNAT2
Structure (SMILES): N[C@H](C(=O)O)c1ccc(O)cc1 [oxfenicine, Oxfenicine]

inhibition of SNAT2-mediated 3H-glycine uptake / affinity for SNAT2 (SNAT2 [1]; [7]): potency is lost
Structure (SMILES): C[C@H](N)CO [L-alaninol]

Hill slope of concentration-response curve (SNAT2 [1]; [7]): -4.2 | IC50 (SNAT2 [1]; [8]): 5600 µM
Structure (SMILES): O=C(O)c1ccccn1 [picolinic acid]

IC50 (SNAT2 [1]; [8]): 710 µM
Structure (SMILES): CNCC(=O)O [Sarcosine, sarcosine]
